Data taken from patent US20090149452A1, “XANTHINE OXIDASE INHIBITOR” (NIPPON CHEMIPHAR CO., LTD., priority 2005, published 2009).
pIC50: −log10 of the molar value.

How the values were obtained:
[1] = target: T1, Cow milk Xanthine Oxidase (Bos taurus, UniProt P80457); assay: In vitro xanthine oxidase inhibition (oxidation of xanthine, absorbance at OD 290 nm); format: biochemical; details: xanthine 250 μM, 50 mM phosphate buffer pH 7.5, 30° C. 10 minutes
T1 construct: Cow milk Xanthine Oxidase (Roche); purchased Roche; host or cells: cow milk
Protocol: The xanthine oxidase inhibiting action (in vitro test) of the compound of the invention was confirmed by measuring inhibition of oxidation of xanthine by xanthine oxidase, as described in Example 26. As is clear from Tables 11 and 12, the compounds of the invention show excellent xanthine oxidase inhibiting action.
The test compound was dissolved in dimethylsulfoxide and diluted with 50 mM phosphate buffer (pH 7.5), to give a solution of a predetermined concentration.
125 μL of each of the solutions of the test compound having different concentrations was added to 1 mL of a solution of Xanthine (SIGMA, 250 μM) in the 50 mM phosphor buffer (pH 7.5). The mixture was then pre-incubated at 30° C. for 5 min. Subsequently, to the pre-incubated mixture was added 125 μL of Cow milk Xanthine Oxidase (Roche) diluted with the 50 mM phosphate buffer (pH 7.5) to 70 mU/mL, and the mixture was subjected to reaction at 30° C. for 10 minutes. Then, 1N hydrochloric acid (200 μL) was added to the reaction mixture to terminate the reaction. Subsequently, absorbance at OD 290 nm was measured by means of a spectrophotometer (Shimadzu UV-160A), to obtain a inhibition ratio. The measured inhibition ration was used to obtain IC50.
The inhibition ratio was calculated according to the following formula:
Inhibition ratio (%)=[1−(B−C)/(A−C)]×100 • A: absorbance of control • B: absorbance measured on a sample containing test compound • C: absorbance of blank

[2] = test system: in-plasma uric acid value; assay: In vivo test: in-plasma uric acid value-inhibition ratio after single oral administration to mouse; details: in-plasma uric acid inhibition ratio as activity value relative to TMX-67 (0.3 mg/kg); unfasted ICR mouse, single oral 0.3 mg/kg or 3 mg/kg, blood one hour after administration
Protocol: The xanthine oxidase inhibiting action was further confirmed in viva tests by measuring the uric acid concentration in a plasma obtained from mouse into which the compound of the invention had been orally administered. See Example 27 and Tables 11 and 12. The test compound suspended in 1% methylcellulose solution in an amount of 0.3 mg/kg or 3 mg/kg was administered to unfasted ICR mouse (7 W) by forced single oral administration. The blood was collected from main artery from the mouse under etherization after one hour from the administration. The plasma was separated from the collected blood in the conventional manner. The plasma was then subjected to measurement of uric acid value by the enzyme method by means of an automatic analytical apparatus ([…]), to obtain an in-plasma uric acid value-inhibition ratio in the test sample-administered group as compared with a ratio obtained in the normal group. Based on the obtained in-plasma uric acid inhibition ratio, activity values (%) relative to activity values obtained in the simultaneously conducted tests using TMX-67 (0.3 mg/kg).

T1 sequence (P80457 whole entry): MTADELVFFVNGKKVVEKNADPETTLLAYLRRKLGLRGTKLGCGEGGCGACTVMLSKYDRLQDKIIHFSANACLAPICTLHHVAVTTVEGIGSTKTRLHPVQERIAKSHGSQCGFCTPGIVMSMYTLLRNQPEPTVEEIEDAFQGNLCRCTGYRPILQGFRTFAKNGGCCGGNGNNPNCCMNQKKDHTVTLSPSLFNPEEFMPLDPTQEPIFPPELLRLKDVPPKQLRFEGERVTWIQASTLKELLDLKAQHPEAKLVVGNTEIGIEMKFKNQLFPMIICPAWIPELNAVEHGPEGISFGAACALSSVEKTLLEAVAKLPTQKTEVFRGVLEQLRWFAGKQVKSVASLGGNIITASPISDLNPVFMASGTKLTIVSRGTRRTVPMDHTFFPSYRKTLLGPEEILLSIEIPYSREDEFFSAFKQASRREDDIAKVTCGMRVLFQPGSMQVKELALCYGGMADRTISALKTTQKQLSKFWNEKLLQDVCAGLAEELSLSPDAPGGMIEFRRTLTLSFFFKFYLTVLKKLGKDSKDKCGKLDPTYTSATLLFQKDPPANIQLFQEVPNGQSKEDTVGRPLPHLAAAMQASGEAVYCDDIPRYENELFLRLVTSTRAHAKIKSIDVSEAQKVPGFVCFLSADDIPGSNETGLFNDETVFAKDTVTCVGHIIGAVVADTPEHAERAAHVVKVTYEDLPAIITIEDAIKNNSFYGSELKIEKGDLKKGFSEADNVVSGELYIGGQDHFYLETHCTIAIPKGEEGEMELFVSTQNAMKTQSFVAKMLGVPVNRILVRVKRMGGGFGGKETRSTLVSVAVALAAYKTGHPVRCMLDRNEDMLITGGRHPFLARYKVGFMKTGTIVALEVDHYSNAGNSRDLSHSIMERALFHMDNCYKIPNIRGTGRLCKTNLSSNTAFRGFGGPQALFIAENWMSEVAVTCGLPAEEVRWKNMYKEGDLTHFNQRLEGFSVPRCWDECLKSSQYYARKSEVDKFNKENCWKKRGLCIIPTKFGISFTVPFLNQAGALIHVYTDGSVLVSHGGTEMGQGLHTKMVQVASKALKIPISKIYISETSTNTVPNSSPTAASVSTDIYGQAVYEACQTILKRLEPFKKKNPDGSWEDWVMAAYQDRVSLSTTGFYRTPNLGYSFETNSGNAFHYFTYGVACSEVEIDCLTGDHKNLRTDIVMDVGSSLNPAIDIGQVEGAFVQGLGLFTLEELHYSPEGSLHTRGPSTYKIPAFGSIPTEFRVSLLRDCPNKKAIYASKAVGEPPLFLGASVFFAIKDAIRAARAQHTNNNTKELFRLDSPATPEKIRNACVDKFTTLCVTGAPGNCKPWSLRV

Row | pIC50 [1] | melting point | Structure (SMILES) | In Vivo (%) TMX-67 (0.3 mg/kg) [2] [%]
1 | 6.90 | 178 to 180 °C | N#Cc1cc(-c2nc3cncnc3s2)ccc1Sc1ccccc1F [Example 10, 2-[3-Cyano-4-(2-fluorophenylthio)phenyl]-thiazolo[5,4-d]pyrimidine] | 115
2 |  | 232 to 234 °C (dec.) | N#Cc1cc(-c2nc3cncnc3s2)ccc1N1CCOCC1 [Example 13, 2-(3-Cyano-4-morpholin-4-ylphenyl)thiazolo-[5,4-d]pyrimidine] | 40
3 | 6.99 | 255 to 256 °C | N#Cc1cc(-c2nc3cncnc3s2)ccc1Oc1ccccc1O [Example 8, 2-[3-Cyano-4-(2-hydroxyphenoxy)phenyl]thiazolo[5,4-d]pyrimidine] | 52
4 |  | 209 to 211 °C | N#Cc1cc(-c2nc3cncnc3s2)ccc1Oc1ccccc1Cl [Example 17, 2-[4-(2-Chlorophenyloxy)-3-cyanophenyl]thiazolo[5,4-d]pyrimidine] | 86
5 | 6.62 | 190 to 195 °C | N#Cc1cc(-c2nc3cncnc3s2)ccc1Sc1ccc(F)cc1 [Example 7, 2-[3-Cyano-4-(4-fluorophenylthio)phenyl]-thiazolo[5,4-d]pyrimidine] | 109
6 | 6.86 | 154 to 156 °C | N#Cc1cc(-c2nc3cncnc3s2)ccc1Oc1ccccc1 [Example 2, 2-[3-Cyano-4-phenoxyphenyl)thiazolo[5,4-d]-pyrimidine] | 114
7 | 6.99 | 195 to 196 °C | N#Cc1cc(-c2nc3cncnc3s2)ccc1Oc1ccccc1F [Example 5, 2-[3-Cyano-4-(2-fluorophenoxy)phenyl]-thiazolo[5,4-d]pyrimidine] | 141
8 | 6.53 | 179 to 180 °C | N#Cc1cc(-c2nc3cncnc3s2)ccc1Oc1ccc(Cl)cc1 [Example 9, 2-[4-(4-Chlorophenyloxy)-3-cyanophenyl]-thiazolo[5,4-d]pyrimidine] | 120
9 |  | 189 to 190 °C | N#Cc1cc(-c2nc3cncnc3s2)ccc1Sc1cccc(F)c1 [Example 19, 2-[3-Cyano-4-(3-fluorophenylthio)phenyl]-thiazolo[5,4-d]pyrimidine] | 171
10 | 7.48 | > 250 °C | N#Cc1cc(-c2nc3cncnc3[nH]2)ccc1Oc1ccc(F)cc1 [Example 4, 8-[3-Cyano-4-(4-fluorophenoxy)phenyl]-9H-purine] | 33
11 | 6.51 | 202.6 to 207.6 °C | C=CCOc1ccc(-c2nc3cncnc3s2)cc1C#N [Example 12, 2-(4-Allyloxy-3-cyanophenyl)thiazolo[5,4-d]-pyrimidine] | 52
12 |  |  | N#Cc1cc(-c2nc3cncnc3s2)ccc1Oc1ccc(O)cc1.[K] [Example 25, 2-[3-Cyano-4-(4-hydroxyphenoxy)phenyl]thiazolo[5,4-d]pyrimidine potassium salt] | 35
13 | 6.56 | 210 to 212 °C | N#Cc1cc(-c2nc3cncnc3s2)ccc1Oc1cccnc1 [Example 3, 2-[3-Cyano-4-(3-pyridyloxy)phenyl]thiazolo-[5,4-d]pyrimidine] | 90
14 | 6.71 | 173 to 176 °C | N#Cc1cc(-c2nc3cncnc3s2)ccc1Sc1ccccc1 [Example 11, 2-(3-Cyano-4-phenylthiophenyl)thiazolo[5,4-d]pyrimidine] | 110
15 | 6.41 | 189 to 190 °C | N#Cc1cc(-c2nc3cncnc3s2)ccc1Oc1cccc(F)c1 [Example 6, 2-[3-Cyano-4-(3-fluorophenoxy)phenyl]-thiazolo[5,4-d]pyrimidine] | 127
16 | 6.55 | 175 to 177 °C | N#Cc1cc(-c2nc3cncnc3s2)ccc1Oc1ccc(F)cc1 [Example 1, 2-[4-(4-fluorophenoxy)-3-cyanophenyl]thiazolo[5,4-d]pyrimidine] | 132
17 |  | 163 to 165 °C (dec.) | CN1CCN(c2ccc(-c3nc4cncnc4s3)cc2C#N)CC1 [Example 14, 2-[3-Cyano-4-(4-methyl-1-piperazinyl)phenyl]thiazolo[5,4-d]pyrimidine] | 43
18 |  | 170 to 175 °C (dec.) | N#Cc1cc(-c2nc3cncnc3s2)ccc1N1CCSCC1 [Example 16, 2-[3-Cyano-4-(thiomorpholin-4-yl)phenyl]-thiazolo[5,4-d]pyrimidine] | 34
19 |  | 204 to 206 °C | Cl.N#Cc1cc(-c2nc3cncnc3s2)ccc1Oc1cccnc1 [Example 21, 2-[3-Cyano-4-(3-pyridyloxy)phenyl]thiazolo-[5,4-d]pyrimidine hydrochloride] | 68
20 |  | 171 to 173 °C | N#Cc1cc(-c2nc3cncnc3s2)ccc1Oc1cccc(Cl)c1 [Example 15, 2-[4-(3-Chlorophenyloxy)-3-cyanophenyl]-thiazolo[5,4-d]pyrimidine] | 87
21 |  |  | N#Cc1cc(-c2nc3cncnc3o2)ccc1Oc1ccc(F)cc1 [Example 18, 2-[3-Cyano-4-(4-fluorophenoxy)phenyl]oxazolo[5,4-d]-pyrimidine] | 71
22 | 7.24 | 256 to 259 °C (dec.) | N#Cc1cc(-c2nc3cncnc3s2)ccc1Oc1ccccc1N [Example 20, 2-[4-(2-Aminophenoxy)-3-cyanophenyl]thiazolo[5,4-d]-pyrimidine] | 

Row | Structure (SMILES) | pIC50 [1] | melting point | In Vivo (%) TMX-67 (0.3 mg/kg) [2] [%]
23 | N#Cc1cc(-c2nc3cncnc3s2)ccc1Oc1ccc(O)cc1 [Example 22, 2-[3-Cyano-4-(4-hydroxyphenoxy)phenyl]thiazolo[5,4-d]pyrimidine] | 7.14 | > 250 °C | 
